Results: US9730445B2, “Herbicidal compositions comprising 4-amino-3-chloro-5-fluoro-6-(4-chloro-2-fluoro-3-methoxyphenyl) pyridine-2-carboxylic acid or a derivative thereof and fungicides” (DOW AGROSCIENCES LLC, priority 2013, dated 2017)

Assays:
BRAPP = experiment: Postemergence foliar-applied weed control, direct-seeded rice (greenhouse); assay type: in vivo; conditions: 22 DAA, r38-40 ester 8/16/32 g ae/ha alone, r41-42 azoxystrobin 125/250 g ai/ha alone, r43-48 ester 8/16/32 at each of 125, 250
Excerpt: (§1) Seeds or nutlets of the desired test plant species were planted in a soil matrix prepared by mixing aloam or sandy loam soil (e.g., 28.6 percent silt, 18.8 percent clay, and 52.6 percent sand, with a pH of about 5.8 and an organic matter content of about 1.8 percent) and calcareous grit in an 80 to 20 ratio. The soil matrix was contained in plastic pots with a volume of 1 quart and a surface area of 83.6 square centimeters (cm^2). When required to ensure good germination and healthy plants, a fungicide treatment and/or other chemical or physical treatment was applied. The plants were grown for 8-22 days in a greenhouse with an approximate 14 hour (h) photoperiod which was maintained at about 29° C. during the day and 26° C. during the night. Nutrients (Peters Excel® 15-5-15 5-Ca 2-Mg and iron chelate) were applied in the irrigation solution as needed and water was added on a regular basis. Supplemental lighting was provided with overhead metal halide 1000-Watt lamps as necessary. The plants were employed for testing when they reached the first through fourth true leaf stage.
(§2) Treatments consisted of the acid or esters of 4-amino-3-chloro-5-fluoro-6-(4-chloro-2-fluoro-3-methoxy-phenyl)pyridine-2-carboxylic acid (Compound A), each formulated as an SC (suspension concentrate), and various fungicidal components alone and in combination. Forms of compound A were applied on an acid equivalent basis.
(§3) Treatment requirements were calculated based upon the rates being tested, the concentration of active ingredient or acid equivalent in the formulation and a 12 milliliter (mL) application volume at a rate of 187 liters per hectare (L/ha).
(§4) For treatments comprised of formulated compounds, measured amounts of compounds were placed individually in 25 mL glass vials and diluted in a volume of 1.25% volume per volume (v/v) Agri-Dex® crop oil concentrate to obtain 12× stock solutions. […] Application solutions were prepared by adding an appropriate amount of each stock solution (e.g., 1 mL) and diluted to the appropriate final concentrations with the addition of […] of an aqueous mixture of 1.25% (v/v) crop oil concentrate so that the final spray solutions contained 1.25+/−0.05% (v/v) crop oil concentrate.
(§5) For treatments comprised of technical compounds, weighed amounts can be placed individually in 25 mL glass vials and dissolved in a volume of 97:3 volume per volume (v/v) acetone/dimethyl sulfoxide (DMSO) to obtain 12× stock solutions. […] When technical materials are used, the concentrated stock solutions can be added to the spray solutions so that the final acetone and DMSO concentrations of the application solutions are 16.2% and 0.5%, respectively.
(§6) As required, additional water and/or 97:3 v/v acetone/DMSO was added to individual application solutions so that the final acetone and DMSO concentrations of the application solutions being compared were 8.1% and 0.25%, respectively
(§7) All stock solutions and applications solutions were visually inspected for compound compatibility prior to application. Spray solutions were applied to the plant material with an overhead Mandel track sprayer equipped with 8002E nozzles calibrated to deliver 187 L/ha over an application area of 0.503 square meters (m^2) at a spray height of 18 to 20 inches (46 to 50 cm) above average plant canopy height. Control plants were sprayed in the same manner with the solvent blank.
(§8) The treated plants and control plants were placed in a greenhouse as described above and watered by sub-irrigation to prevent wash-off of the test compounds. After approximately 3 weeks, the condition of the test plants as compared with that of the untreated plants was determined visually and scored on a scale of 0 to 100 percent where 0 corresponds to no injury or growth inhibition and 100 corresponds to complete kill. […]

CYPIR = experiment: as above; assay type: in vivo, Cyperus iria L. (rice flatsedge); conditions: 22 DAA, r22-23 ester 16/32 g ae/ha alone, r24-26 azoxystrobin 62.5/125/250 g ai/ha alone, r27-32 ester 16/32 at each of 62.5, 125, 250
Protocol: as §1, with “When required to ensure good germination and healthy plants, a fungicide treatment and/or other chemical or physical treatment was applied.” left out
as §2, §4, §5, §6, §7
(§9) The treated plants and control plants were placed in a greenhouse as described above and watered by sub-irrigation to prevent wash-off of the test compounds. After approximately 3 weeks, the condition of the test plants as compared with that of the untreated plants was determined visually and scored on a scale of 0 to 100 percent where 0 corresponds to no injury or growth inhibition and 100 corresponds to complete kill.
(§10) Colby's equation was used to determine the herbicidal effects expected from the mixtures (Colby, S. R. Calculation of the synergistic and antagonistic response of herbicide combinations. Weeds 1967, 15, 20-22.).
(§11) The following equation was used to calculate the expected activity of mixtures containing two active ingredients, A and B: Expected=A+B−(A×B/100)

IPOHE = experiment: as above; assay type: in vivo, Ipomoea hederacea (L.) Jacq. (ivyleaf morningglory)
Protocol: as §1, with “When required to ensure good germination and healthy plants, a fungicide treatment and/or other chemical or physical treatment was applied.” left out
as §2, §4, §5, §6, §7, §9, §10, §11

DIGSA = experiment: as above; assay type: in vivo, Digitaria sanguinalis (L.) Scop. (large crabgrass); conditions: 21 DAA
Excerpt: as §1, §2, §3, §4, §5, §6, §7, §8

ECHCO = experiment: as above; assay type: in vivo, Echinochloa colonum (L.) LINK (junglerice); conditions: 19 DAA, r9-11 ester 8/16/32 g ae/ha alone
Excerpt: as §1, §2, §3, §4, §5, §6, §7, §8

CYPRO = experiment: In-water applied weed control, transplanted paddy rice (greenhouse); assay type: in vivo, Cyperus rotundus L. (purple nutsedge); conditions: 22 DAA
Protocol: Weed seeds or nutlets of the desired test plant species were planted in puddled soil (mud) prepared by mixing a shredded, non-sterilized mineral soil (50.5 percent silt, 25.5 percent clay, and 24 percent sand, with a pH of about 7.6 and an organic matter content of about 2.9 percent) and water at a 1:1 volumetric ratio. The prepared mud was dispensed in 365 mL aliquots into 16-ounce (oz.) non-perforated plastic pots with a surface area of 86.59 square centimeters (cm^2) leaving a headspace of 3 centimeters (cm) in each pot. Rice seeds were planted in Sun Gro MetroMix® 306 planting mixture, which typically has a pH of 6.0 to 6.8 and an organic matter content of about 30 percent, in plastic plug trays. Seedlings at the second or third leaf stage of growth were transplanted into 860 mL of mud contained in 32-oz. non-perforated plastic pots with a surface area of 86.59 cm^2 4 days prior to herbicide application. The paddy was created by filling the headspace of the pots with 2.5 to 3 cm of water. When required to ensure good germination and healthy plants, a fungicide treatment and/or other chemical or physical treatment was applied. The plants were grown for 4-22 days in a greenhouse with an approximate 14 hour (h) photoperiod which was maintained at about 29° C. during the day and about 26° C. during the night. Nutrients were added as Osmocote® (17:6:10, N:P:K+minor nutrients) at 2 g per cup. Water was added on a regular basis to maintain the paddy flood, and supplemental lighting was provided with overhead metal halide 1000-Watt lamps as necessary. The plants were employed for testing when they reached the first through fourth true leaf stage.
as §2, with “(compound A)” for “(Compound A),”, “concentrate)” for “concentrate),”
Treatment requirements for each compound or fungicidal component were calculated based upon the rates being tested, the concentration of active ingredient or acid equivalent in the formulation, an application volume of 2 mL per component per pot, and an application area of 86.59 cm^2 per pot.
For formulated compounds, a measured amount was placed in an individual 100 or 200 mL glass vial and was dissolved in a volume of 1.25% (v/v) Agri-Dex® crop oil concentrate to obtain application solutions.
For technical grade compounds, a weighed amount was placed in an individual 100 to 200 mL glass vial and dissolved in a volume of acetone to obtain concentrated stock solutions.
Applications were made by injecting with a pipetter appropriate amounts of the application solutions, individually and sequentially, into the aqueous layer of the paddy. Control plants were treated in the same manner with the solvent blank. Applications were made so that all treated plant material received the same concentrations of acetone and crop oil concentrate.
as §9, with “water was added as needed” for “watered by sub-irrigation”, “maintain a paddy flood.” for “prevent wash-off of the test compounds.”, “weeks” for “weeks,”
as §10, §11

LEFCH = experiment: Postemergence foliar-applied weed control, direct-seeded rice (greenhouse); assay type: in vivo, Leptochloa chinensis (L.) Nees (Chinese sprangletop)
Protocol: as §1, with “When required to ensure good germination and healthy plants, a fungicide treatment and/or other chemical or physical treatment was applied.” left out
as §2, §4, §5, §6, §7, §9, §10, §11

ECHCG = experiment: as above; assay type: in vivo, Echinochloa crus-galli (L.) P. Beauv. (barnyardgrass); conditions: r10-11 ester 8/16 g ae/ha alone, r12-14 phthalide 100/200/300 g ai/ha alone, r15-20 ester 8/16 at each of 100, 200, 300
Protocol: as §1, with “When required to ensure good germination and healthy plants, a fungicide treatment and/or other chemical or physical treatment was applied.” left out
as §2, §4, §5, §6, §7, §9, §10, §11

[1] = r9-11 acid 5.3/10.6/21.2 g ae/ha alone, r12 azoxystrobin 250 g ai/ha alone, r13-15 acid 5.3/10.6/21.2 + 250
[2] = r10-12 ester 4.38/8.75/17.5 g ae/ha alone, r13 azoxystrobin 250 g ai/ha alone, r14-16 ester 4.38/8.75/17.5 + 250
[3] = r9-11 acid 5.3/10.6/21.2 g ae/ha alone, r12 myclobutanil 250 g ai/ha alone, r13-15 acid 5.3/10.6/21.2 + 250

Molecule: CO/C=C(/C(=O)OC)c1ccccc1Oc1cc(Oc2ccccc2C#N)ncn1 [Azoxystrobin, methyl (2E)-2-{2-[6-(2-cyanophenoxy)pyrimidin-4-yloxy]phenyl}3-methoxyacrylate, reference compound]
- Visual Weed Control (%) - 22 DAA BRAPP Obs (BRAPP): 0%
- Visual Weed Control (%) - 22 DAA CYPIR Obs (CYPIR): 0%
- Visual Weed Control (%) - 21 DAA IPOHE Obs (IPOHE; [1]): 0%
- Visual Weed Control (%) - 21 DAA IPOHE Obs (IPOHE; [2]): 0%
- Visual Weed Control (%) - 21 DAA DIGSA Obs (DIGSA; [1]): 0%
- Visual Weed Control (%) - 21 DAA DIGSA Obs (DIGSA; [2]): 0%

Molecule: COC(=O)Nc1nc2ccccc2[nH]1 [Carbendazim, methyl benzimidazol-2-ylcarbamate, reference compound]
- Visual Weed Control (%) - 19 DAA ECHCO Obs (ECHCO; r12-13 carbendazim 125/250 g ai/ha alone, r14-19 ester 8/16/32 at each of 125, 250): 0%

Molecule: COc1c(Cl)ccc(-c2nc(C(=O)O)c(Cl)c(N)c2F)c1F [Compound A Acid, 4-amino-3-chloro-5-fluoro-6-(4-chloro-2-fluoro-3-methoxy-phenyl)pyridine-2-carboxylic acid]
- Visual Weed Control (%) - 22 DAA CYPRO Obs (CYPRO; Compound A Acid 10.6 g ae/ha): 0%
- Visual Weed Control (%) - 22 DAA CYPRO Obs (CYPRO; Compound A Acid 21.2 g ae/ha): 25%
- Visual Weed Control (%) - 22 DAA CYPRO Obs (CYPRO; Compound A Acid 42.4 g ae/ha): 95%

Molecule: CC(C)Oc1cccc(NC(=O)c2ccccc2C(F)(F)F)c1 [Flutolanil, α,α,α-trifluoro-3′-isopropoxy-o-toluanilide, reference compound]
- Visual Weed Control (%) - 19 DAA ECHCO Obs (ECHCO; r12-13 flutolanil 280/560 g ai/ha alone, r14-19 ester 8/16/32 at each of 280, 560): 0%
- Visual Weed Control (%) - 19 DAA LEFCH Obs (LEFCH; 19 DAA, r9-11 ester 8/16/32 g ae/ha alone, r12-13 flutolanil 280/560 g ai/ha alone, r14-19 ester 8/16/32 at each of 280, 560): 0%

Molecule: CCCCC(C#N)(Cn1cncn1)c1ccc(Cl)cc1 (stereo not drawn) [Myclobutanil, 2-p-chlorophenyl-2-(1H-1,2,4-triazol-1-ylmethyl)hexanenitrile, reference compound]
- Visual Weed Control (%) - 21 DAA LEFCH Obs (LEFCH; [3]): 0%
- Visual Weed Control (%) - 21 DAA IPOHE Obs (IPOHE; [3]): 10%

Molecule: O=C1OCc2c(Cl)c(Cl)c(Cl)c(Cl)c21 [Phthalide, 4,5,6,7-tetrachlorophthalide]
- Visual Weed Control (%) - 21 DAA ECHCG Obs (ECHCG): 0%

Molecule: CCCC1COC(Cn2cncn2)(c2ccc(Cl)cc2Cl)O1 (stereo not drawn) [Propiconazole, 1-[2-(2,4-dichlorophenyl)-4-propyl-1,3-dioxolan-2-ylmethyl]-1H-1,2,4-triazole, reference compound]
- Visual Weed Control (%) - 21 DAA DIGSA Obs (DIGSA; r9-11 acid 5.3/10.6/21.2 g ae/ha alone, r12 propiconazole 190 g ai/ha alone, r13-15 acid 5.3/10.6/21.2 + 190): 0%

Molecule: manganese ethylenebis(dithiocarbamate) (polymeric) complex with zinc salt [Mancozeb, reference compound]
- Visual Weed Control (%) - 21 DAA LEFCH Obs (LEFCH; r10-11 ester 16/32 g ae/ha alone, r12 mancozeb 840 g ai/ha alone, r13-14 ester 16/32 + 840): 0%
- Visual Weed Control (%) - 21 DAA IPOHE Obs (IPOHE; r20-22 ester 8/16/32 g ae/ha alone, r23 mancozeb 1680 g ai/ha alone, r24-26 ester 8/16/32 + 1680): 0%
